According to patent publication US12698265B2, “Plant extracts enriched with ipolamiide derivatives as immunosuppressants for treating immunological disorders” (priority 2017, dated 2026):

Legend:
IFNγ = IFNγ production by αCD3/CD28-activated CD8+ T cells (Human IFNγ ELISA); format: cell-based; details: 3, 10 and 30 μM; human CD8+ T cells activated with αCD3/CD28; FIG. 2B
Method: (§1) FIG. 2—Effect of the aqueous extract of Stachytarpheta cayennensis (3, 10 and 30 μM, concentration expressed in ipolamiide) and isolated ipolamiide (3, 10 and 30 μM) on the proliferation of CD8+ T cells activated by αCD3/CD28 (A) and IFNγ production (B). The effect of the pool of compounds (IV to VIII) and the five novel isolated compounds (IV to VIII) generated after the acid hydrolysis of ipolamiide (30 μM) was also evaluated in the same experiments, proliferation of CD8+ T cells activated by αCD3/CD28 (C) and IFNγ production (D). Tacrolimus (0.5 μM) was used as the positive control for all experiments. The data are the mean±SD of three replicates.
(§2) The extract of Stachytarpheta cayennensis, ipolamiide and derivatives were studied in an experimental in vitro immunological model involving CD8+ T cells and IFNγ. […]
(§3) Peripheral blood mononuclear cells (PBMCs) from healthy volunteers were isolated from leukocyte layers by Ficoll-Hystopaque centrifugation. […] Specifically, it was evaluated the incorporation of BrdU through the Biotrak ELISA System (GE Healthcare, RPN250) per the manufacturer's instructions. The methodology for quantification of interferon gamma comprised the use of the Human IFNγ ELISA Ready-SET-Go kit (eBiosciences 88-7316-88) and followed the manufacturer's instructions. […]

[1] = tested on: CD8+ T cells activated by αCD3/CD28; assay: Proliferation of CD8+ T cells activated by αCD3/CD28 (BrdU incorporation, Biotrak ELISA); format: cell-based; details: 3, 10 and 30 μM (extract concentration expressed in ipolamiide); human CD8+ T cells from PBMCs; FIG. 2A
Method: as §1, §2, §3

## COC(=O)C1=CO[C@@H](O[C@@H]2O[C@H](CO)[C@@H](O)[C@H](O)[C@H]2O)[C@@H]2[C@@](C)(O)CC[C@]12O [ipolamiide]
IFNγ
  secretion of IFNγ: had no effect
[1]
  activation / proliferation of CD8+ T cells induced by αCD3/CD28: had no effect
